# Results as given in paper PMC6802730, “In Vitro Performance of Published Glypican 3-Targeting Peptides TJ12P1 and L5 Indicates Lack of Specificity and Potency” (Cancer Biotherapy & Radiopharmaceuticals, 2019).
# “Also recorded” adds a separate entry of the source. Where two headings read alike, the source gives them in different places.
# Experiments:
# [1] = target: GPC3; settings: cited from earlier work
# Description: Table 1. […] Several full-length antibodies, antibody fragments, and peptides for imaging and/or therapeutic use have been developed for GPC3 with varying degrees of success (Table 1).[8–17] […] To rule out the possibility that fluorophore modification of TJ12P1 interfered with its abil ... || (+ 2 further places)
# [2] = Solubility assays; format: physicochemical
# Protocol: Solubility assays were performed to determine the most compatible solvent for both peptides before in vitro evaluation of GPC3 binding, favoring aqueous solvents over cytotoxic organic solvents such as dimethylformamide (DMF) and dimethyl sulfoxide (DMSO).
# FIG. 1. Cy5.5-conjugated TJ12P1 is peptide insoluble in aqueous buffer. Bright field images of Cy5.5-TJ12P1 peptides in solution. In (A, B), peptide Cy5.5-TJ12P1 is undissolved in 20% DMSO/80% ddH2O and 100% ddH2O at 0.3 mg/mL, respectively. DMSO, dimethyl sulfoxide.
# [3] = test system: GPC3; test: Cell-based and cell-free GPC3 binding assays, overall result; set-up: species or system human; settings: for specific binding (overall): concentrations in the range of their reported KD; for selectivity for GPC3 (overall): concentrations near the reported KD; for binding to GPC3 (overall): fluorescently labeled and unlabeled versions, concentrations in the range of their published KD (0.3–1 μM)
# Protocol: (§1) Approximately 1 × 10^6 cells per sample tube were harvested, washed once with ice-cold staining buffer (1% bovine serum albumin in 1 × phosphate buffered saline [PBS]), and resuspended in 60 μL staining buffer. Cells were then distributed into control and experimental vials. Unstained and single-color control samples were made. Experimental samples were stained with PE-conjugated anti-GPC3 antibody (R&D Systems, Minneapolis, MN), PE-conjugated IgG2 isotype control (Biolegend, San Diego, CA), conjugated specific or nonspecific peptide and incubated for 1–2 h on ice in the dark. Data were collected using a BD FACSCalibur cytometer running BD CellQuest Pro software (v6.0), and results were analyzed with FlowJo (v10.4.2). All experiments represent biological replicates (n = 3).
# (§2) Biotinylated human GPC3 protein (Acro Biosystems, Newark, DE) was diluted to 5 μg/mL in assay buffer (1 × PBS with 0.02% Tween-20) in a 96-well plate and loaded onto streptavidin biosensors (FortéBio, Menlo Park, CA). Each unconjugated peptide was diluted in assay buffer at four concentrations (1000, 500, 250, and 125 nM for TJ12P1; and 500, 250, 125, and 62.5 nM for KKK-L5) and loaded into the 96-well plate in a final volume of 200 μL. Specific and nonspecific binding wells were made for each concentration. The plate was run on an Octet Red96 system (FortéBio) and analyzed with FortéBio Octet Data Analysis software (v.11).
# [4] = target: T1, human GPC3 (Homo sapiens, UniProt P51654); test: Biolayer interferometry to immobilized recombinant biotinylated GPC3; format: binding; settings: unlabeled peptide, 1 × PBS with 0.02% Tween-20
# T1 construct: biotin (biotinylated); purchased Acro Biosystems
# T1 sequence (P51654 25-580): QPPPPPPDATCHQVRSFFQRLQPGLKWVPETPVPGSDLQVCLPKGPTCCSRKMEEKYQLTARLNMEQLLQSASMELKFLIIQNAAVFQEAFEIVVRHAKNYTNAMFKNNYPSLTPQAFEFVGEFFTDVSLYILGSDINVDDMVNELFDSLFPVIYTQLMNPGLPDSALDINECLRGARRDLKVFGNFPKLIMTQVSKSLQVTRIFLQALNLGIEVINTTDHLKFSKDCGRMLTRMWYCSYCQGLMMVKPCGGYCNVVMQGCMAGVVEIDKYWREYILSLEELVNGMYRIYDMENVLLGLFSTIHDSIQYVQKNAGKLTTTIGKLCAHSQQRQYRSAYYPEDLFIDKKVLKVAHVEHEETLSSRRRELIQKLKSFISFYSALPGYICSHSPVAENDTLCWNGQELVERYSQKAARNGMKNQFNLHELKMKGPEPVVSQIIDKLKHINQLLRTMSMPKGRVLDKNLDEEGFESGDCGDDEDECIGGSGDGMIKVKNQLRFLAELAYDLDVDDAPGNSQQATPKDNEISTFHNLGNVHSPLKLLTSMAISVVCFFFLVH
# Protocol: as §2
# [5] = cited from earlier work
# Protocol: Solubility assays were performed to determine the most compatible solvent for both peptides before in vitro evaluation of GPC3 binding, favoring aqueous solvents over cytotoxic organic solvents such as dimethylformamide (DMF) and dimethyl sulfoxide (DMSO). […] Sonication and vortexin ... || This study has a few limitations.
# [6] = target: Glypican 3 (Homo sapiens) (UniProt P51654); test: surface plasmon resonance; settings: cited from earlier work
# Sequence of Glypican 3 (Homo sapiens) (P51654 359-554): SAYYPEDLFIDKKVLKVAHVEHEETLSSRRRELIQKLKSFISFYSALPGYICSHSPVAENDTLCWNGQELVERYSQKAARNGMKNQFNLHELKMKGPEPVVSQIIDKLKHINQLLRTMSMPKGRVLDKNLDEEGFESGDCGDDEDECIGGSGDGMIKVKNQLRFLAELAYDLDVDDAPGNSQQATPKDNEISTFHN
# [7] = Hydrophobic residue content
# [8] = test system: G1, HepG2, and A431 cells; test: Flow cytometry, binding compared across A431, G1 and HepG2 cells; format: cell-based, human; settings: 1 h, n = 3
# Protocol: (§3) A431, a human epidermoid carcinoma GPC3^− cell line, and A431-GPC3^+ (G1), a transfected A431 cell line engineered to stably express human GPC3, were both obtained from Dr. M.H. (National Cancer Institute, Bethesda, MD).[12] HepG2 (GPC3^+ liver cancer cell line) was obtained from ATCC (Manassas, VA). All cell lines were cultured in DMEM (Life Technologies, Carlsbad, CA) supplemented with 10% FetaPlex (Gemini Bio-Products, West Sacramento, CA) according to supplier's protocols. All cell lines tested negative for mycoplasma in monthly tests and were used for experiments within 10 passages (HepG2) or 15 passages (A431 and G1).
# as §1
# [9] = test system: HepG2 cells; test: Flow cytometry, HepG2 (GPC3-positive) cells; format: cell-based; settings: 300 nM, 1 h, n = 3
# Protocol: as §3
# as §1, with “All experiments represent biological replicates (n = 3).” left out
# [10] = target: Glypican 3 (Homo sapiens) (UniProt P51654); settings: cited from earlier work
substance,measurement,setting,value
DHLASLWWGTEL [TJ12P1],Kd,"[1]; with Cy5.5, ref [9] (Zhu et al.)",390 nM
same,solubility,[2]; aqueous solution,poor solubility in aqueous solution
same,solubility,"[2]; aqueous solution, record 2",poor solubility in aqueous solutions
same,specific binding (overall),[3],do not bind specifically
same,selectivity for GPC3 (overall),[3],neither TJ12P1 nor L5 variant demonstrates selectivity for GPC3
same,binding to GPC3 (overall),[3],neither fluorescently labeled nor unlabeled versions tested can bind to GPC3
same,KD by BLI,[4]; 125–1000 nM,no KD could be calculated
same,BLI concentration-dependent binding to GPC3,"[4]; 125–1000 nM, recombinant biotinylated human GPC3 on streptavidin biosensors",failed to demonstrate concentration-dependent binding behavior
"KKK-RLNVGGTYFLTTRQ [KKK-L5, variant of the L5 peptide with three lysine residues]",solubility,"[2]; ddH2O, 0.5 mg/mL",soluble in ddH2O
same,specific binding (overall),[3],do not bind specifically
same,selectivity for GPC3 (overall),[3],neither TJ12P1 nor L5 variant demonstrates selectivity for GPC3
same,KD by BLI,[4]; 62.5–500 nM,no KD could be calculated
same,BLI binding to GPC3,"[4]; 62.5–500 nM, recombinant biotinylated human GPC3 on streptavidin biosensors",absence of specific binding to GPC3; also recorded: failed to demonstrate concentration-dependent binding behavior
same,solubility,"[5]; aqueous solution, compared to the original L5 peptide, ref [23] (Han et al.)",higher solubility in aqueous solution
L5,Kd,[6],44.7 nM
"RLNVGGTYFLTTRQ [L5, previously published GPC3-targeting peptide; original L5 not evaluated in this study, reference compound]",solubility,[2]; aqueous solution,poor solubility in aqueous solutions
same,binding to GPC3 (overall),[3],neither fluorescently labeled nor unlabeled versions tested can bind to GPC3
same,"hydrophobic residues, share of sequence",[7]; four out of the 14 residues,28.5%
same,"hydrophobic residues, number",[7]; out of the 14 residues,Four
same,solubility,"[5]; original L5 peptide, as reported in literature",poor solubility
"Sulfo-Cy5-DHLASLWWGTEL [sulfo-Cy5-TJ12P1, sulfo-Cy5-labeled variant of TJ12P1]",solubility,[2]; 0.15 M NH4OAc,appeared to be soluble
same,"binding, G1 vs HepG2 vs A431","[8]; 325 nM, flow cytometry","no significant difference in binding between G1, HepG2, and A431 cells; also recorded: nonspecific association of TJ12P1 to all cell lines"
"Sulfo-Cy5-KKKRLNVGGTYFLTTRQ [sulfo-Cy5-KKK-L5, sulfo-Cy5-conjugated KKK-L5]",solubility,"[2]; ddH2O, 0.5 mg/mL",soluble in ddH2O
same,"binding, A431 vs HepG2 and G1 (histogram shift)","[8]; 300 nM, flow cytometry","bound nonspecifically to GPC3, as the observed histogram shift is identical in the A431 (GPC3^−) and the HepG2 and G1 (GPC3^+) cells"
"Sulfo-Cy5-KKKYTRFLGTVGNRLTQ [sulfo-Cy5-KKK-L5 scramble, sulfo-Cy5-labeled scrambled variant of KKK-L5]",difference in staining compared to sulfo-Cy5-KKK-L5,"[9]; high-staining HepG2 population (Hi), p < 0.001",statistically significant
same,difference in staining compared to sulfo-Cy5-KKK-L5,"[9]; low-staining HepG2 population (Lo), p < 0.005",statistically significant
same,binding (MFI) compared to specific peptide (sulfo-Cy5-KKK-L5),"[8]; 300 nM, all three cell lines, p < 0.05",more binding; also recorded: binds better to all cell lines than the specific peptide
"Sulfo-Cy5-WLSHLGDLTWEA [sulfo-Cy5-TJ12P1 scrambled peptide, sulfo-Cy5-labeled scrambled variant of TJ12P1]",binding compared to sulfo-Cy5-TJ12P1,"[8]; 325 nM, all GPC3+ cell lines (G1, HepG2), flow cytometry, p = 0.02",significantly increased binding in all GPC3^+ cell lines
TJ12P1,Kd,[10],390 nM
"WLSHLGDLTWEA [TJ12P1 scramble, scrambled variant of TJ12P1, nonspecific control]",binding (MFI) compared to specific peptide (sulfo-Cy5-TJ12P1),"[8]; 325 nM, all cell lines tested, p < 0.05",more binding to all cell lines tested
"hGC33: published anti-GPC3 targeting moiety, humanized",Kd,"[1]; humanized: Yes, ref [16]",0.67 nM
